Source: patent US10632172B2, “Injectable self-assembling antibacterial peptide hydrogels” (New Jersey Institute of Technology, priority 2018, dated 2020)
Where “and” joins values, the source holds several entries; their conditions need not be identical. Equal entries are not always repeated. Entries after “also recorded” stand apart in the source; their conditions may differ.

What was measured:
[1] = system: NIH 3T3 fibroblasts; assay: In vitro cytocompatibility (LIVE/DEAD viability/cytotoxicity kit); assay type: cell-based; settings: 0.002% peptide in media, day 3
Method: For in vitro cytocompatibility tests, cultured were NIH 3T3 fibroblasts in DMEM supplemented with 10% FBS and 1× penicillin-streptomycin in T75 flasks. After the fibroblasts reached confluency, they were seeded in a 96-well plate at 2,500 cells/well. 0.002% CASP-K6 (n=6) and a control (media with sucrose and phosphate-buffered saline (PBS), n=6) were tested. For the former, the peptide was supplemented in the media, and for the control, 298 mM sucrose and PBS was supplemented to the media. The sucrose and PBS supplemented in the media control corresponded to the quantities required to formulate CASP-K6. Media was changed daily for 3 days and cytocompatibility was assessed on day 3 using a LIVE/DEAD viability/cytotoxicity kit (images were taken on a Nikon Eclipse Ti—S inverted fluorescent microscope). A NIH ImageJ was used to quantify cell viability.

[2] = Rheology of CASP hydrogels/solutions (strain sweep, shear recovery); assay type: physicochemical; settings: for storage modulus (G') at 1% strain: 2% w/v hydrogels/solutions
Method: For rheology, 2% peptide hydrogel was transferred between a plate and a 4 mm parallel plate geometry with a gap of 350 μm, on a Malvern Kinexus Ultra+rheometer. Strain sweep (0.1-100% strain at 1 Hz) and shear recovery (1% strain at 1 Hz for 5 min, 100% strain at 1 Hz for 1 min, and 1% strain at 1 Hz for 5 min) were carried out.

[3] = In vivo subcutaneous implantation of hydrogel, histology; set-up: species or system Wistar rats
Method: To test the in vivo persistence of the peptide, Wistar rats were subcutaneously injected with 200 μL CASP-K6 hydrogel (2% w/v). Because of the thixotropic nature of the hydrogel, it reconstituted post-injection in the subcutaneous pocket. At prescribed time intervals (1, 3, and 7 days), the rats were sacrificed and the dorsal skin covering the implant was removed for histological examination. Used was hematoxylin and eosin (H&E) FIGS. 15A-15B, and Masson's trichrome staining FIGS. 15C-15D) to analyze the tissue sections.
For in vivo subcutaneous implantations, NJIT-Rutgers animal care facility was used. Injected was ˜200 μL CASP-K6 hydrogels in the subcutaneous pocket (dorsal aspect) of female Wistar rats (˜250 g, Charles River) (four implants (n=4) per rat). At the specified time points (1 day, 3 day, and 7 day), the animals were sacrificed and regions around the implant were excised, fixed, and processed. Hematoxylin and eosin (H&E) and Masson's trichrome staining was used for histologic analysis.

[4] = system: Pseudomonas aeruginosa PAO1; assay: Colony disruption on agar plates (inhibition zones, SEM); assay type: cell-based; settings: P. aeruginosa PAO1 on agar, peptide hydrogels/solutions applied, overnight
Method: Colonies of the gram-negative bacteria Pseudomonas aeruginosa PAO1 were grown on agar and CASP solutions were applied to assess their colony-disruption ability (FIGS. 9A-9E). Cationic amphiphilic peptide nanofibers show noticeable bactericidal effect. This effect was correlated with the terminal charge on the cationic nanofibers (FIGS. 9C-9D), consistent with the hypothesis that a greater terminal charge facilitates the association of the peptide nanofibrils with the bacterial cell membrane.
To test the efficacy of CASPs against bacterial colonies, Pseudomonas aeruginosa (PAO1) were cultured on agar plates and peptide hydrogels/solutions were placed on these bacteria cultures during the exponential growth phase to evaluate the antibacterial properties. The experiment to test antibacterial activity of the peptides was carried out over 4 days. On day 1, an agar plate was streaked with the bacteria using an inoculating loop. The streaked plate was then kept in an incubator to allow for bacterial growth overnight. Day 2 consisted of inoculating one colony of bacteria from the streaked plate into a glass tube filled with 5 mL of the Luria-Bertani (LB) broth. The tube is then set aside to allow for the colony to grow overnight in the LB broth. The following day the agar plates were labeled with the type of bacteria, concentration used, treatment being tested, and the date. […]

[5] = Hydrogel formation after addition of 10xPBS to 2% (w/v) peptide solution in 298 mM sucrose; assay type: physicochemical; settings: 2% (w/v) in 298 mM sucrose, 10xPBS pH 7 added 1:9
Method: In one example, after purification and lyophilization, the peptides are dissolved in 298 mM sucrose solution to prepare 2% (w/v) solutions. After the addition of 10×PBS (pH 7) to the peptide solution (in a 1:9 volumetric ratio), hydrogels form within seconds. Biofilms of the gram-negative bacteria Pseudomonas putida are grown on agar plates and CASP solutions are applied on top of established biofilms to test their ability to disrupt the bacterial colony. Cationic amphiphilic peptide nanofibers show noticeable bactericidal effect on biofilms. This effect is correlated with the terminal charge on the cationic nanofibers, consistent with initial hypothesis contained herein that higher terminal charge facilitates the association of the peptide nanofibrils with the bacterial cell membrane. The effect of the antibacterial hydrogel is localized on the biofilm.
In this example, a series of CASPs was explored. The series of CASPs were synthesized through solid-phase peptide synthesis and verified by mass spectrometry as shown in FIGS. 3A-3D. After purification and lyophilisation, the peptides were dissolved in 298 mM sucrose solution to prepare 2% (w/v) solutions. After the addition of 10×PBS (pH 7) to the peptide solution (in a 1:9 volumetric ratio), CASP-K2 through CASP-K6 formed hydrogels within seconds.

[6] = cited from earlier work

Ac-KKKKKKSLSLSLSLSLSLKKKKKK-NH2 [CASP-K6]
toxicity with respect to mammalian cells (cytocompatibility) [1]: low toxicity
storage modulus (G') at 1% strain [2]: ~210 Pa
storage modulus of hydrogel (rheometry) ([2]; strain not stated): > 100 Pa and > 200 Pa
shear strain at which the gel liquefied (G'<G'') ([2]; strain sweep): > 30 % strain
in vivo persistence ([3]; rat, in vivo, sc): persists in vivo
in vivo persistence of subcutaneous implant (remained observable) ([3]; rat, in vivo, sc): at least 7 days
local/systemic toxicity or mortality ([3]; subcutaneous implants in rats, up to 7 days): did not induce any local/systemic toxicity or mortality
disruption of bacterial colonies / antibacterial activity [4]: very effective in disrupting the bacterial layer; also recorded: comparable antibacterial activity

KKKKKKKKSLSLSLSLSLSLKKKKKKKK (CASP-K8) [cationic amphiphilic self-assembling peptide]
storage modulus (G') at 1% strain [2]: ~30 Pa
hydrogel formation [5]: failed to form a gel; also recorded: remained in solution
disruption of bacterial colonies / antibacterial activity [4]: very effective in disrupting the bacterial layer

KKKKSLSLSLSLSLSLKKKK (CASP-K4) [cationic amphiphilic self-assembling peptide]
storage modulus (G') at 1% strain [2]: ~430 Pa

KKSLSLSLSLSLSLKK (CASP-K2) [cationic amphiphilic self-assembling peptide, previously reported as a multifunctional scaffold]
storage modulus (G') at 1% strain [2]: ~620 Pa

LL-37: natural antimicrobial peptide
enzymatic degradation in vivo [6]: susceptible to enzymatic degradation in vivo within a time period of hours
